# Laboratory results: the kinase profiling compilation of Christmann-Franck et al. (2016)
# What was measured:
# Test in all cases: KINOMEscan competition binding
# Conditions in all cases: compound 10.0 µM
# [1] = target: ITK (human) (UniProt Q08881)
# [2] = target: EPHA7 (human) (UniProt Q15375)
# [3] = tested on: EGFR (human), P00533 [L858R]
# [4] = tested on: EGFR (human), P00533 [G719C; 746-750 del]
# [5] = target: CDK11B (human) (UniProt P21127)
# [6] = target: BMPR2 (human) (UniProt Q13873)
# Chain of BMPR2 (human) (Q13873 whole entry, looked up): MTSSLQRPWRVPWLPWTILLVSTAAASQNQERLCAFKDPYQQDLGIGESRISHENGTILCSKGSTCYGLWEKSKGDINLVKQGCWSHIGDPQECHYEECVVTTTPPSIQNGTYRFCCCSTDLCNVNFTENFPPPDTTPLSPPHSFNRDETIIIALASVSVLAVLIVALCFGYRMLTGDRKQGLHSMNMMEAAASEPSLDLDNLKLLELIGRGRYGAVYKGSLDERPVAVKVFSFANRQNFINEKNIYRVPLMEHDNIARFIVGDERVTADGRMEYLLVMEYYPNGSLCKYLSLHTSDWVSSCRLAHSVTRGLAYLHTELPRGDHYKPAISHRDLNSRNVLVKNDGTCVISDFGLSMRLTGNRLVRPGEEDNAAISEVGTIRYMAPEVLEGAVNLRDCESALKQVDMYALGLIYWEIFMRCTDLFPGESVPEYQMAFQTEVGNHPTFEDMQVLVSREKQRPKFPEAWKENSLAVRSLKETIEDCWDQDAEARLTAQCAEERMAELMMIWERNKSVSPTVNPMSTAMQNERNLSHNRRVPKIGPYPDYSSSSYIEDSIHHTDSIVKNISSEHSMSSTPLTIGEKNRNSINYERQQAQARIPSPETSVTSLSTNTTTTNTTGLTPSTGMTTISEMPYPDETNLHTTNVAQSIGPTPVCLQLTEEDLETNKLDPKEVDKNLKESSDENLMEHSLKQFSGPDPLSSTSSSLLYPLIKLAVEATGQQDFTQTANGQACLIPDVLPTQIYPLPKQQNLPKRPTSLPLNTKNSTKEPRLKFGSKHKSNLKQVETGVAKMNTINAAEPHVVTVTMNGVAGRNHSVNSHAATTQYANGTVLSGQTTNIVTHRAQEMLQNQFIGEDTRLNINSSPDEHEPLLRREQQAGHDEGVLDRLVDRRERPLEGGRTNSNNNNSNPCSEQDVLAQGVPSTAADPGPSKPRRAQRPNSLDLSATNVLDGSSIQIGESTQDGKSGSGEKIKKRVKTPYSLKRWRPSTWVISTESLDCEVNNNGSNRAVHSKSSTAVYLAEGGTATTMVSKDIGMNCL
# [7] = target: CAMK4 (human) (UniProt Q16566)
# Chain of CAMK4 (human) (Q16566 whole entry, looked up): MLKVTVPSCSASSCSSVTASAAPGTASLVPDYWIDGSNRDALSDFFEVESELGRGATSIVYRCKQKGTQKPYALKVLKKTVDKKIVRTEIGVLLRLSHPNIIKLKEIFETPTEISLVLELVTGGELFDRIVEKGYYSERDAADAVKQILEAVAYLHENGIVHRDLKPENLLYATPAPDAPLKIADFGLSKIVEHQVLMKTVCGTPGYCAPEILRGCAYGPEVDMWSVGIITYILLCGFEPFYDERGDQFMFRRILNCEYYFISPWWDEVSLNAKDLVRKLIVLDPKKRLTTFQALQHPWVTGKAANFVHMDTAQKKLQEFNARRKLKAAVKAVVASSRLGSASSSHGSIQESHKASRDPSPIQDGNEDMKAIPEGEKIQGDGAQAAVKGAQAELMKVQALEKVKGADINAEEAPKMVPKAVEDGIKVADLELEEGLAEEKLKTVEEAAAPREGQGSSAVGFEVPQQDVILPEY
# [8] = target: PAK2 (human) (UniProt Q13177)
# Chain of PAK2 (human) (Q13177 whole entry, looked up): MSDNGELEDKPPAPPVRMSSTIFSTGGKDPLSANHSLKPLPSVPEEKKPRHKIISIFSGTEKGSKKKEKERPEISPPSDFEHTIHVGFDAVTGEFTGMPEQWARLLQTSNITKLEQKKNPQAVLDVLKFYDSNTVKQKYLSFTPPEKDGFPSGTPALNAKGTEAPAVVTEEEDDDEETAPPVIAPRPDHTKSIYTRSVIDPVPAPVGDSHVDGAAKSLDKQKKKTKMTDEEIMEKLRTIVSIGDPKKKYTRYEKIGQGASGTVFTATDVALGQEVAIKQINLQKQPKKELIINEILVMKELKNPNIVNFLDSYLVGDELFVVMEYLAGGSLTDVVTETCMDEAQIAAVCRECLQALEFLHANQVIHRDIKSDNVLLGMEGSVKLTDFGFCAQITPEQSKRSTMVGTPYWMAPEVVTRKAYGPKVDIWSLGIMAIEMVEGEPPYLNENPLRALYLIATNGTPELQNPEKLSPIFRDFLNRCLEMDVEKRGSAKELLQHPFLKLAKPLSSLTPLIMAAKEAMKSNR
# [9] = target: MAP3K9 (human) (UniProt P80192)
# [10] = target: CAMK2G (human) (UniProt Q13555)
# [11] = target: PIK3C2B (human) (UniProt O00750)
# Chain of PIK3C2B (human) (O00750 whole entry, looked up): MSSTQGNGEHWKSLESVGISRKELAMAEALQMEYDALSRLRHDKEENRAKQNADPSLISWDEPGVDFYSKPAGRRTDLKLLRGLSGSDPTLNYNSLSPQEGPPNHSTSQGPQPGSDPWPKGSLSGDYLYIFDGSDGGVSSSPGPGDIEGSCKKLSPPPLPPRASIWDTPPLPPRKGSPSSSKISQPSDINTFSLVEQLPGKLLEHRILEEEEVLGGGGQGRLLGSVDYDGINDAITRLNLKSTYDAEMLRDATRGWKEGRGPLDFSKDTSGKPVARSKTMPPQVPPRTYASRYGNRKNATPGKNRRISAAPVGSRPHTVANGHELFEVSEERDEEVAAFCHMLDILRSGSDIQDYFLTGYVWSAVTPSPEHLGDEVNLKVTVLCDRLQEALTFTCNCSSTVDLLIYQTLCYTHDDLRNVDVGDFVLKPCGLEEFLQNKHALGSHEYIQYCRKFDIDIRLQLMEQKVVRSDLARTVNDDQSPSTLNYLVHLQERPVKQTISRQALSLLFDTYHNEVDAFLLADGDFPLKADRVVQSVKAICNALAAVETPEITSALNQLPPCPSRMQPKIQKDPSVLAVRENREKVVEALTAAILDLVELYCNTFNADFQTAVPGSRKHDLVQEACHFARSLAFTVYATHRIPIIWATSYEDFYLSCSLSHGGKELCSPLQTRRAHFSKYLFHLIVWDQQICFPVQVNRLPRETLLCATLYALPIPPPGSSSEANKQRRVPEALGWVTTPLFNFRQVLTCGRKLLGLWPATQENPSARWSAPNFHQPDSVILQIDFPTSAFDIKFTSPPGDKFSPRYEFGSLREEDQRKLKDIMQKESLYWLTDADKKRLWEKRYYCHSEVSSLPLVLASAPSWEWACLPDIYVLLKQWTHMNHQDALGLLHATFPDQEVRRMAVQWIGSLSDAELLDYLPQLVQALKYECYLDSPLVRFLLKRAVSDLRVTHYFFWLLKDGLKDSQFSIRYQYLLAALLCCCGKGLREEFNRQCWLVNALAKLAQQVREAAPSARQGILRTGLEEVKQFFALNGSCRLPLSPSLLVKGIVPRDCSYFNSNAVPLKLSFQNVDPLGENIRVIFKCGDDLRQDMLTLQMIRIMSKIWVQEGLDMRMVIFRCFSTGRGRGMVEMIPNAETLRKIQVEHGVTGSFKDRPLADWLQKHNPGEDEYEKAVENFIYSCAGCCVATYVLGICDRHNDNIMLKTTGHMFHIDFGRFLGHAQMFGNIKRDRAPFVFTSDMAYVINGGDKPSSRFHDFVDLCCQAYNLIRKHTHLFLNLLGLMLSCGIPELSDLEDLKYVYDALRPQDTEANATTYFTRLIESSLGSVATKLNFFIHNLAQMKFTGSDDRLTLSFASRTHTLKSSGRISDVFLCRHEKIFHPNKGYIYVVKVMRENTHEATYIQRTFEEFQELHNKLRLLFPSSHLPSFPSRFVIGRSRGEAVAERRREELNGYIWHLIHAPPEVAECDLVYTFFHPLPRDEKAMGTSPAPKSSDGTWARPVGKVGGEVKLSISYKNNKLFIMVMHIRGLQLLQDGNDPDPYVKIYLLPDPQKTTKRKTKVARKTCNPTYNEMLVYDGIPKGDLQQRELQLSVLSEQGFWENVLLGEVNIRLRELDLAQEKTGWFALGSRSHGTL
# [12] = target: CDK18 (human) (UniProt Q07002)
# [13] = target: CDK3 (human) (UniProt Q00526)
# [14] = tested on: ABL1 (human), P00519 [E255K]
# [15] = target: NTRK2 (human) (UniProt Q16620)
# [16] = tested on: RET (human), P07949 [V804M]
# [17] = target: PKN2 (human) (UniProt Q16513)
# Chain of PKN2 (human) (Q16513 whole entry, looked up): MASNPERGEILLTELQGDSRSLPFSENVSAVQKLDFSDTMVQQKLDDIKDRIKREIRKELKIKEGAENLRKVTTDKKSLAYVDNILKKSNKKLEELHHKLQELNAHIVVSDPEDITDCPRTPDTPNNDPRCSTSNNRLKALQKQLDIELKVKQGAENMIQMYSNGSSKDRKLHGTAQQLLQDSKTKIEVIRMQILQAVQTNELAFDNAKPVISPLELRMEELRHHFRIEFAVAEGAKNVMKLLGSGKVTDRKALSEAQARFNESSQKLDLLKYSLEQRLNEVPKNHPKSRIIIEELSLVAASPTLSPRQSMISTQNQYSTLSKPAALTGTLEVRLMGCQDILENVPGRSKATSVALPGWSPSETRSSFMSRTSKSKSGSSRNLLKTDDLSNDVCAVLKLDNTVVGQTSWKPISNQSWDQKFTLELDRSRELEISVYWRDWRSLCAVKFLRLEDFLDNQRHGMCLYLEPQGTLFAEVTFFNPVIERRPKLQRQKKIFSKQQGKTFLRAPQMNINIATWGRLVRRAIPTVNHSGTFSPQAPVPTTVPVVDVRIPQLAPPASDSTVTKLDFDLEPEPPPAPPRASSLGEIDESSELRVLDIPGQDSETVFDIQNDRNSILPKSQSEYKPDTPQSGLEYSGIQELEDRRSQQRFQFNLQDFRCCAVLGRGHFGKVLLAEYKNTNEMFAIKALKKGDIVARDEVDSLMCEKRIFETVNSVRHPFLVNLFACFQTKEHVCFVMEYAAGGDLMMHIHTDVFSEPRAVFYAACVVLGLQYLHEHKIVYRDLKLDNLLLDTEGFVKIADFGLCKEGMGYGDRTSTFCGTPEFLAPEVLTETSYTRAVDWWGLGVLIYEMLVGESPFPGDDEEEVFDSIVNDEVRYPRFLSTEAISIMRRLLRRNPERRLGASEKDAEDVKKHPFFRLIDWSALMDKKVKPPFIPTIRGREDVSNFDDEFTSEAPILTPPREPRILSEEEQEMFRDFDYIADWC
# [18] = target: MAPK13 (human) (UniProt O15264)
# Chain of MAPK13 (human) (O15264 whole entry, looked up): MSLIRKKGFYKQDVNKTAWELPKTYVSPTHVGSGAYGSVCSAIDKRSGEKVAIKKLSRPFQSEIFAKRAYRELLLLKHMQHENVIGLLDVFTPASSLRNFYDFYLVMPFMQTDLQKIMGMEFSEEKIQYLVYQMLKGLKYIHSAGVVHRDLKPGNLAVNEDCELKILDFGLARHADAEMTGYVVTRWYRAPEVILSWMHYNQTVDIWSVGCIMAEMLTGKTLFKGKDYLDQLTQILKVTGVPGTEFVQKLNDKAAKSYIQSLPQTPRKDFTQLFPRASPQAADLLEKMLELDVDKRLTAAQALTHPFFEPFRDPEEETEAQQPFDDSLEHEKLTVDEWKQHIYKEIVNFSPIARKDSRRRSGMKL
# [19] = target: MST1R (human) (UniProt Q04912)
# [20] = target: MAPKAPK2 (human) (UniProt P49137)
# [21] = target: NTRK1 (human) (UniProt P04629)
# [22] = target: NEK7 (human) (UniProt Q8TDX7)
# [23] = target: MAPK6 (human) (UniProt Q16659)
# [24] = target: TEC (human) (UniProt P42680)
# [25] = tested on: EGFR (human), P00533 [A750P; 747-749 del]
# [26] = target: DDR2 (human) (UniProt Q16832)
# [27] = target: ROS1 (human) (UniProt P08922)
# [28] = target: AXL (human) (UniProt P30530)
# [29] = target: IKBKB (human) (UniProt O14920)
# [30] = target: AURKA (human) (UniProt O14965)
# [31] = target: CDK9 (human) (UniProt P50750)
# [32] = tested on: ABL1 (human), P00519 [H396P]
# [33] = target: TXK (human) (UniProt P42681)
# [34] = target: DCLK2 (human) (UniProt Q8N568)
# [35] = target: PRKG2 (human) (UniProt Q13237)
# [36] = target: CSNK1A1L (human) (UniProt Q8N752)
# [37] = target: AKT3 (human) (UniProt Q9Y243)
# [38] = target: FGR (human) (UniProt P09769)
# [39] = target: ACVR1B (human) (UniProt P36896)
# [40] = target: MARK4 (human) (UniProt Q96L34)
# [41] = target: MAP2K2 (human) (UniProt P36507)
structure (smiles),measurement,setting,value
COc1cc(N2CCN(C)CC2)ccc1Nc1ncc2c(n1)N(C)c1ccccc1N(C)C2=O,"kinase still bound, per cent of control",[1],98%
same,"kinase still bound, per cent of control",[2],100%
same,"kinase still bound, per cent of control",[3],43%
same,"kinase still bound, per cent of control",[4],61%
same,"kinase still bound, per cent of control",[5],100%
same,"kinase still bound, per cent of control",[6],100%
same,"kinase still bound, per cent of control",[7],100%
same,"kinase still bound, per cent of control",[8],94%
same,"kinase still bound, per cent of control",[9],100%
same,"kinase still bound, per cent of control",[10],95%
same,"kinase still bound, per cent of control",[11],100%
same,"kinase still bound, per cent of control",[12],100%
same,"kinase still bound, per cent of control",[13],96%
same,"kinase still bound, per cent of control",[14],100%
same,"kinase still bound, per cent of control",[15],100%
same,"kinase still bound, per cent of control",[16],100%
same,"kinase still bound, per cent of control",[17],100%
same,"kinase still bound, per cent of control",[18],100%
same,"kinase still bound, per cent of control",[19],100%
same,"kinase still bound, per cent of control",[20],95%
same,"kinase still bound, per cent of control",[21],76%
same,"kinase still bound, per cent of control",[22],81%
same,"kinase still bound, per cent of control",[23],100%
same,"kinase still bound, per cent of control",[24],100%
same,"kinase still bound, per cent of control",[25],49%
same,"kinase still bound, per cent of control",[26],100%
same,"kinase still bound, per cent of control",[27],21%
same,"kinase still bound, per cent of control",[28],95%
same,"kinase still bound, per cent of control",[29],75%
same,"kinase still bound, per cent of control",[30],76%
same,"kinase still bound, per cent of control",[31],100%
same,"kinase still bound, per cent of control",[32],100%
same,"kinase still bound, per cent of control",[33],100%
same,"kinase still bound, per cent of control",[34],68%
same,"kinase still bound, per cent of control",[35],99%
same,"kinase still bound, per cent of control",[36],100%
same,"kinase still bound, per cent of control",[37],100%
same,"kinase still bound, per cent of control",[38],100%
same,"kinase still bound, per cent of control",[39],100%
same,"kinase still bound, per cent of control",[40],63%
same,"kinase still bound, per cent of control",[41],100%
